Experimental data as given in patent US20250099420A1, “SMALL MOLECULE MODULATORS OF GPR139 COMPLEX” (University of Florida Research Foundation, Incorporated, priority 2022, published 2025).
Where two headings read alike, the source gives them in different places.

Legend:
parental HEK cells = test: HEK parental Agonist Counterscreen Assay (non-transfected cells); assay type: cell-based; conditions: for Averaged Max % Response (±St. Dev.): activity relative to known control
Description: The high control for the agonist counterscreen was Forskolin not acetylcholine.

GPR139 = biological target: T1, GPR139 (Homo sapiens, UniProt Q6DWJ6); test: GPR139 Agonist titration / agonist counterscreen assay (calcium detection, HEK-GPR139 cells); assay type: cell-based; parameters: expressed in transfected cells; host or cells: HEK Aequorin cells, Maxcyte transient transfection; conditions: GPR139 Agonist Activity; for Averaged Max % Response (±St. Dev.): activity relative to known control; for EC50: read-out: EC50
T1 sequence (Q6DWJ6 1-353): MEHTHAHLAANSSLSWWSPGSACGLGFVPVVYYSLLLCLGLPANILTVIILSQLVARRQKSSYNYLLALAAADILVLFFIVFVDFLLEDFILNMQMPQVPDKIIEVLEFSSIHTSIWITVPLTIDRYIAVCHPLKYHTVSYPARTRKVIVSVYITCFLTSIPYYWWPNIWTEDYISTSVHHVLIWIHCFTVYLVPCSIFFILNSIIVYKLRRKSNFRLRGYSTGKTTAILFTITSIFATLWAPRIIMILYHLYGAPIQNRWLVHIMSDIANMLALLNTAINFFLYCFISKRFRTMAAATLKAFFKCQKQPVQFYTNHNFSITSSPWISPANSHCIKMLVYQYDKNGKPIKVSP
Description: GPR activity was assessed using a calcium detection assay. […] Negative control samples were treated with DMSO. […] Intracellular calcium was measured using Calcium 5.

[1] = HEK Agonist Activity, parental non-transfected HEK cells
[2] = values printed in E-notation without unit
[3] = Homo sapiens, HEK293, HEK Agonist Activity section of Table 4 (parental HEK counterscreen)
[4] = HEK Agonist Activity section of Table 4 (parental HEK counterscreen)

| SMILES | Lipophilic Efficiency (logD) (parental HEK cells; HEK Agonist Activity) | Lipophilic Efficiency (logP) (parental HEK cells; HEK Agonist Activity) | Averaged Max % Response (±St. Dev.) (parental HEK cells; HEK Agonist Activity) | Averaged Max % Response (±St. Dev.) (GPR139) | Lipophilic Efficiency (logD) (GPR139; based on logD) | Lipophilic Efficiency (logP) (GPR139; based on logP) | Hill Slope (GPR139; fitted dose-response curve) | Efficiency Ligand (GPR139; ligand efficiency) | EC50 (GPR139; [2]) | Lipophilic Efficiency (logD) (parental HEK cells; HEK Agonist Activity section) | Lipophilic Efficiency (logP) (parental HEK cells; HEK Agonist Activity section) | Averaged Max % Response (±St. Dev.) (parental HEK cells; HEK Agonist Activity section) | EC50 (parental HEK cells; [3]) | other results |
| --- | --- | --- | --- | --- | --- | --- | --- | --- | --- | --- | --- | --- | --- | --- |
| CC(C)CN1CCNC(=O)C1CC(=O)NCCCn1ccc2ccccc21 (stereo not drawn) [SR-01000176150] | 3.48 | 3.17 | −3.65 ± 2.66% | 110.06 ± 19.04% | 6.35 | 6.03 | 0.64 | 0.40 | 19.2 nM | – | – | – | – | EC50 (parental HEK cells; [1]): > 14100 nM |
| COc1ccccc1CN1CCNC(=O)C1CC(=O)NCCCN1CCc2ccccc21 (stereo not drawn) [SR-01000176838] | – | – | – | 83.30 ± 1.40% | – | – | – | – | – | 3.04 | 3.02 | −8.12 ± 1.57% | > 14100 nM | Efficiency Ligand (GPR139): 0.27; Hill Slope (GPR139): 0.77; Lipophilic Efficiency (logD) (GPR139): 4.34; Lipophilic Efficiency (logP) (GPR139): 4.32; EC50 (GPR139; HEK-GPR139 cells): 697 nM |
| CC(C)(C)CN1CCNC(=O)C1CC(=O)NCCc1cnn(-c2ccccc2)c1 (stereo not drawn) [SR-01000177515] | 3.12 | 2.87 | 24.98 ± 4.71% | 91.26 ± 4.77% | 5.92 | 5.67 | 0.48 | 0.37 | 22.6 nM | – | – | – | – | EC50 (parental HEK cells; [1]): > 14100 nM |
| O=C(NCC1Cc2cccc(-c3ccccn3)c2O1)c1ccc(-n2cccn2)cc1 (stereo not drawn) [SR-01000183606] | 1.16 | 1.16 | −9.57 ± 3.95% | 89.43 ± 6.88% | 3.97 | 3.96 | 0.82 | 0.36 | 22 nM | – | – | – | – | EC50 (parental HEK cells; [1]): > 14100 nM |
| CCOC(=O)C1CCN(C(=O)C2CC(Cc3cccc4ccccc34)=NO2)CC1 (stereo not drawn) [SR-01000185621] | – | – | – | 81.20 ± 9.68% | – | – | – | – | – | 1.69 | 1.69 | −9.62 ± 7.28% | > 14100 nM | Efficiency Ligand (GPR139): 0.28; Hill Slope (GPR139): 0.84; Lipophilic Efficiency (logD) (GPR139): 2.73; Lipophilic Efficiency (logP) (GPR139): 2.73; EC50 (GPR139; HEK-GPR139 cells): 1300 nM |
| O=C(C1CC(Cc2cccc3ccccc23)=NO1)N1CCC(C(O)Cc2ccccc2)CC1 (stereo not drawn) [SR-01000185712] | – | – | – | 110.27 ± 5.24% | 2.48 | 2.48 | 0.46 | 0.29 | 122 nM | 0.41 | 0.41 | 9.02 ± 5.86% | – | EC50 (parental HEK cells; [4]): > 14100 nM |
| Cc1nc(CNC(=O)CCC2(Cc3cccc4ccccc34)CCC(=O)N2)cs1 (stereo not drawn) [SR-01000187393] | – | – | – | 99.15 ± 6.04% | 4.29 | 4.29 | 0.44 | 0.32 | 196 nM | 2.44 | 2.44 | 6.35 ± 6.79% | > 14100 nM | – |
| O=C(NCc1csc(-c2cccs2)n1)C1CC(Cc2ccc3c(c2)OCO3)=NO1 (stereo not drawn) [SR-01000187428] | – | – | – | 99.03 ± 14.80% | 3.43 | 3.43 | 1.55 | 0.32 | 201 nM | 1.59 | 1.59 | 6.44 ± 5.26% | > 14100 nM | – |
| O=C(NC1CC1)C1CC(Cc2cccc3ccccc23)=NO1 (stereo not drawn) [SR-01000188699] | – | – | – | 112.57 ± 11.99% | 4.37 | 4.37 | 1.05 | 0.46 | 63.8 nM | 2.02 | 2.02 | 4.63 ± 6.30% | > 14100 nM | – |
| C=CCC(O)(CC=C)C(C)NC(=O)CCC1(Cc2ccc3ccccc3c2)CCC(=O)N1 (stereo not drawn) [SR-01000190122] | – | – | – | 134.89 ± 17.50% | 3.22 | 3.22 | 0.52 | 0.30 | 161 nM | 1.27 | 1.27 | 0.66 ± 6.28% | – | EC50 (parental HEK cells; [4]): > 14100 nM |
| CN(CCC(=O)NCC1Cc2cccc(-c3ccccn3)c2O1)C1CCS(=O)(=O)C1 (stereo not drawn) [SR-01000193031] | – | – | – | 95.01 ± 4.20% | – | – | – | – | – | 4.36 | 4.19 | 25.60 ± 3.67% | > 14100 nM | Efficiency Ligand (GPR139): 0.30; Hill Slope (GPR139): 0.62; Lipophilic Efficiency (logD) (GPR139): 5.90; Lipophilic Efficiency (logP) (GPR139): 5.73; EC50 (GPR139; HEK-GPR139 cells): 406 nM |
| COC(=O)C(CCSC)NC(=O)C1CC(Cc2ccc3c(c2)OCO3)=NO1 (stereo not drawn) [SR-01000193756] | – | – | – | 75.38 ± 12.05% | – | – | – | – | – | 3.01 | 3.01 | −12.55 ± 2.76% | – | EC50 (parental HEK cells; [4]): > 14100 nM; Efficiency Ligand (GPR139): 0.30; Hill Slope (GPR139): 0.69; Lipophilic Efficiency (logD) (GPR139): 4.01; Lipophilic Efficiency (logP) (GPR139): 4.01; EC50 (GPR139; HEK-GPR139 cells): 1400 nM |
| CC(NC(=O)Cn1cc(NC(=O)c2ccccc2F)cn1)c1ccccc1Cl (stereo not drawn) [SR-01000194602] | 1.58 | 1.58 | 4.93 ± 4.93% | 94.95 ± 1.55% | 4.44 | 4.44 | 0.71 | 0.39 | 19.1 nM | – | – | – | – | EC50 (parental HEK cells; [1]): > 14100 nM |
| O=C(c1ccccc1)C1CCCCC1S(=O)(=O)O (stereo not drawn) [SR-01000197834] | – | – | – | 95.96 ± 5.70% | 6.98 | 4.61 | 1.09 | 0.54 | 131 nM | 4.95 | 2.58 | 18.65 ± 10.85% | > 14100 nM | – |
| O=C(NNC(=O)C1CC1c1ccccc1)Nc1cccc(Cl)c1 (stereo not drawn) [SR-01000202338] | 1.76 | 1.76 | 4.74 ± 3.91% | 79.48 ± 15.63% | 4.84 | 4.84 | 1.63 | 0.48 | 11.6 nM | – | – | – | – | EC50 (parental HEK cells; Homo sapiens, HEK293, HEK Agonist Activity, parental non-transfected HEK cells): > 14100 nM |
